Values of other authors, collected in publication PMC12281572.
Several values for one entry are separate records, joined by “and”; a condition that tells them apart may be missing. Equal values may be shown once.

Assay: FTIR, 4-fluorophenol as donor (the pK_BHX database, per the paper)
Conditions: CCl4; 25 C

Compound	pK_BHX (log10 Kf of the 1:1 H-bond complex with 4-fluorophenol, by FTIR)
CC1CCN(c2ccncc2)CC1	2.68 log units
COC(=O)C1CC1	1.12 log units
CCN(CC)C(=O)N(CC)CC	2.43 log units
CCN(CC)c1ccc(C(=O)c2ccc(N(CC)CC)cc2)cc1	2.33 log units
c1cnoc1	0.81 log units
CN1CCCNC1=S	2.0 log units
C=CCSC	0.08 log units
COc1ccc(C(=O)c2ccccc2)cc1	1.27 log units
C=Cc1ccccn1	1.65 log units
c1ccc2nc3ccccc3cc2c1	1.95 log units
C(=Nc1ccccc1)Nc1ccccc1	2.13 log units
CC(=O)c1ccc(N2CCCCC2)cc1	1.71 log units
CCN(CC)c1ccncc1	2.89 log units
CN(C)C(=O)c1ccccc1	2.23 log units
CCN(CC)C(=O)Cl	1.08 log units
CC1(C)CCC(C)(C)O1	1.43 log units
CC(=Nc1ccccc1)N(C)c1ccc(C)cc1	1.76 log units
CC(C)=O	1.18 log units
CN(C)C=NCc1cc(Cl)cc(Cl)c1	2.0 log units
Cc1cccc(CN)c1	1.97 log units
C#CCCC#C	-0.43 log units
CN=Cc1ccccc1	1.49 log units
CN1C(C)(C)CCCC1(C)C	1.23 log units
CCOC(=O)C=Cc1ccccc1	1.14 log units
c1ccc(Sc2ccccc2)cc1	-0.51 log units and -0.93 log units
CC(=O)C(C)=O	0.23 log units
N#Cc1ccc(Br)cc1	0.73 log units

Compound	pK_BHX (log10 Kf of the 1:1 H-bond complex with 4-fluorophenol, by FTIR)
COc1cccc(C#N)c1	0.8 log units
C=COCC	0.1 log units
CCCCCCl	-0.38 log units
Fc1cccc(C2CCCN2)c1 (stereo not drawn)	1.65 log units
C1CCCNCC1	2.24 log units
CCN(CC)CC	1.98 log units
CN(C)C(=O)C12CC3CC(CC(C3)C1)C2	2.3 log units
CCSC	0.18 log units
CC(=O)c1ccc2ccccc2c1	1.13 log units
CN1CCCC1=O	2.38 log units
CN=C(c1ccc(Br)cc1)N(C)C	2.19 log units
CC12CCC(CC1)C(C)(C)O2	1.38 log units
CCOC(C)(C)C	1.08 log units
CC(=S)N(C)C	1.22 log units
S=C1SCCS1	0.3 log units
CCN(C)Cc1ccccc1	1.47 log units
CNc1ccccn1	2.11 log units
CC(C)N(C(=O)C(C)(C)C)C(C)C	2.03 log units
CCOC(=O)c1ccc([N+](=O)[O-])cc1	0.5 log units and 0.16 log units
CC1CCCO1 (stereo not drawn)	1.34 log units
CCCCCI	-0.37 log units
CCOC(=O)N(c1ccccc1)c1ccccc1	1.45 log units
CCCC(=O)c1ccccc1	1.04 log units
C1CCSCC1	0.23 log units
CC(=O)N1CCCC1	2.61 log units
NCC(F)(F)F	0.71 log units
CCC(=O)N(C)C	2.36 log units
